“Also recorded” adds a separate entry of the source. Read-outs that look alike come from different tables or passages of the source.
Legend:
[1] = system: Xenotropic murine leukemia virus (XMuLV); format: cell-based
[2] = Critical micelle concentration (CMC) determination by static surface tension
[3] = system: Bovine viral diarrheal virus (BVDV); format: cell-based
Pseudorabies virus (PRV) = format: cell-based; details: CHO clarified harvest, 15° C., within 5 min

C11-C15 secondary alcohol ethoxylate
SAE inactivation efficacy higher than Triton X-100 by [1]: ~ 1.0 log | XMuLV inactivation efficacy compared with Triton X-100 [1]: slightly higher efficacy than Triton™ X-100; also recorded: comparable inactivation with Triton™ X-100; also recorded: lower than that achieved with 1.0% Triton™ X-100, until a longer incubation time has elapsed; also recorded: comparable to that achieved with Triton™ X-100; also recorded: the same virus inactivation efficacy as Triton™ X-100 | XMuLV inactivation efficiency compared with Triton X-100 [1]: slightly higher than that achieved with Triton™ X-100 detergent | time in which most XMuLV inactivation occurred [1]: ≤ 5 min | critical micelle concentration (CMC) [2]: 49 mg/L | BVDV inactivation LRV [3]: ≥ 4.0 | PRV inactivation LRV (Pseudorabies virus (PRV); 0.5% detergent): ~ 6.5 | PRV inactivation LRV (Pseudorabies virus (PRV); 1.0% detergent): ≥ 5.0 | hemolysis compared with Triton X-100 (Fresh human whole blood): comparable to Triton™ X-100
